# No end group written: not given here.
# Assays:
# splenic CD4+ T cells = test: Th1/T reg priming in vitro of splenic CD4+ T cells by Aspergillus-pulsed DCs (ELISPOT, flow cytometry); format: cell-based, mouse
# Procedure: IDO expression and functional activity were assessed as described in Nat. Immunol. 2002; 3:1097-1101. Generation, purification and activity of T reg cells Splenic CD4+ T-cells were cocultured with conidia-pulsed DCs for 5 days […] before flow cytometry or ELISPOT assay. 1-MT (Sigma-Aldrich) was used at 2 μM. CD4+CD25+ and CD4+CD25− cells (>90% pure on FACS analysis) were separated by magnetic cell sorting from lung and TLN (J. Immunol. 2006; 176:1712-1723). For T reg cell inhibition, 5×10^4 TLN T reg cells were added to 3×10^5 CD4+CD25− cells, both from transplanted mice, stimulated with 3×10^4 autologous Aspergillus conidia-pulsed spDCs or with or 1.5×10^5 allogeneic spDCs from naïve donor mice for five days before H^3-thymidine labeling. Purified peritoneal CD 11b+Gr−1+PMN (>98% pure on FACS analysis) (2×10^6) were exposed to resting conidia in the presence of 4×10^5 CD4+CD25+ for 60 min for oxidant production or 24 hours for cytokine production (J. Immunol. 2006; 176:1712-1723).
# Cytokine content was assessed by enzyme-linked immunosorbent assays (Endogen Human Elisa Kits, R&D Systems and Euroclone, Milan, Italy). AID EliSpot assay kits (Amplimedical, Buttigliera Alta, Turin, Italy) were used on purified splenic CD4+ Tcells cocultured with conidia-pulsed DCs for 5 days to enumerate cytokine-producing cells (Blood. 2003; 102:3807-3814). 1-MT was used at 2 μM.
# (A) Frequency of IFN-γ-/IL-10-producing splenic CD4+ T cells activated by Aspergillus-pulsed Thymosin alpha 1-treated GM-DCs or FL-DCs. 1-MT was present in selected cultures. Plates were read with the AID-EliSpot Reader System (Amplimedical). Values are means±SE per 10^6 cells of samples from 3-5 experiments, calculated using replicates of serial twofold dilutions of cells. (*) P<0.05, conidia-exposed versus unexposed cells; (**) P<0.05, thymosin-exposed versus unexposed cells.
# (B) Phenotypic analysis of CD4+ cells cultured alone (−) or as in (A). Numbers represent the percentage of double positive cells.
# CD4+ T cell clones = test: Aspergillus-specific or alloreactive human T cell clones responding to DCs; format: cell-based; conditions: healthy donors or transplanted patients
# Procedure: Aspergillus-specific human CD4+ T cell clones were generated from peripheral blood CD4+CD45RA+ T cells added at limiting dilution concentrations to irradiated (20 Gy) feeder autologous peripheral blood cells and stimulated with conidia-pulsed DCs or allogeneic DCs (Blood. 2005; 106:4397-4406). Growing clones were assessed for specificity against fungus-pulsed DCs, allogeneic DCs, autologous irradiated cells (as a negative control) and 0.5% phytohemoagglutinin (as a positive control) by H^3-thymidine (Amersham Biosciences, Little Chalfont, UK) labeling or cytokine content in supernatants 2 days later (Blood. 2005; 106:4397-4406).
# (E) Frequency of Aspergillus-specific or alloreactive T cell clones responding to the different types of fungus-pulsed DCs or unpulsed DCs, respectively, from healthy donors or transplanted patients. Growing clones were assessed for specificity after 2 days of stimulation with DCs. (*) p<0.05, GM-DCs versus peripheral blood cells (−). (**) P<0.05, HSCT-DCs versus all other DCs. nd, not done.
# [1] = system: methylcholanthrene-induced fibrosarcoma; conditions: mice; cited from earlier work
# [2] = system: peripheral CD14+ cells (GM-DCs, FL-DCs); test: Human DC generation from peripheral CD14+ cells, surface expression; format: cell-based
# Description: GM-DCs or FL-DCs were obtained from purified CD14+ monocytes from healthy donors or transplanted patients (1 month post-HSCT) cultured in Iscove's modified medium for 7-9 days, in the presence of rGM-CSF (Schering-Plough, Milan, Italy) and rIL-4 (Peprotech, Inalco, Milan, Italy) or FLT3-L (Immunex Corporation, Seattle, Wash.) (Blood. 2004; 103:4232-4239). DC recovery was between 20-30% reduced in cultures from transplanted patients. Murine GM-DCs or FL-DCs were obtained from bone marrow cells for 7-9 days, as described (Blood. 2004; 103:4232-4239). Thymosin alpha 1 and sThymosin alpha 1 were added to the cultures at 20 ng/mL. DCs (>99% CD11c+ consisting of 90-95% CD8-, 5-10% CD8+, and 1-5% B220+ cells) were purified from spleens (spDCs) by magnetic-activated sorting using CD11c MicroBeads and MidiMacs (Miltenyi Biotech). DC populations were further separated into CD8−, CD8+ and B220+ fractions by means of CD8 or B220 MicroBeads (Miltenyi Biotech). DCs were pulsed in serum-free Iscove medium for 24 hours with live unopsonized Aspergillus conidia or Zymosan from Saccharomyces cerevisiae (Sigma) or CpG-ODN 2006 as described.7 Phagocytosis was done as described (Blood. 2004; 103:4232-4239). Photographs were taken using a high Resolution Microscopy Color Camera AxioCam, using the AxioVision Software Rel. 3.1 (Carl Zeiss, Milan, Italy).
# DCs were analyzed for antigen expression with a FACScan flow cytofluorometer (Becton Dickinson, Mountain View, Calif.) equipped with CELLQuest™ software and using conjugated mAbs from PharMingen (Blood. 2004; 103:4232-4239).
# (A) Surface expression of CD11c, CD1a and CD123 on DCs derived from peripheral CD14+ cells of different donors with GM-CSF/IL-4 (GM-DCs) or FLT3L (FL-DCs) in the presence of Thymosin alpha 1. Percent of positive cells is indicated.
# [3] = GM-CSF/IL-4-treated cultures, healthy donors
substance,measurement,setting,value
"Thymosin alpha 1: naturally occurring thymic peptide; supplied as purified, endotoxin-free sterile lyophilized acetylated polypeptide from SciClone Pharmaceuticals (Ac-SDAAVDTSSEITTKDLKEKKEVVEEAEN; UniProt P06454 2-29, looked up)",priming for IL-10-producing cells by FL-DCs,"splenic CD4+ T cells; Aspergillus-pulsed FL-DCs, 5 days coculture",increased priming
same,priming for IFN-γ-/IL-10-producing CD4+ T cells by GM-DCs,"splenic CD4+ T cells; Aspergillus-pulsed GM-DCs, 5 days coculture",increased priming
same,CD4+CD25+ T cells positive for intracellular Foxp3 and surface CTLA-4,splenic CD4+ T cells; cultured with Thymosin alpha 1-induced DCs,a significant proportion of the CD4+CD25+ T cells stained positive for intracellular Foxp3 and surface CTLA-4
same,ability of DCs to activate fungus- or alloantigen-specific T cell reactivity,CD4+ T cell clones,modified neither the antigen-specific T cell responses induced by DCs nor the allostimulatory capacity
same,pulmonary metastases,[1],reduced
same,mobilization of CD123+ pDCs and CD1a+ DCs in FLT3-L cultures,[2]; FLT3-L cultures,No such effects were observed
same,mobilization of CD1a+DCs,[2]; [3],decreasing that of CD1a+DCs
same,mobilization of CD123+ pDCs,[2]; [3],promoted the mobilization of CD123+ pDCs

# From patent US8022036B2, “Use of thymosin alpha 1 for the treatment of immunological diseases” (Sigma-Tau Industrie Farmaceutiche Riunite S.p.A., priority 2006, dated 2011)
